Measurements taken from ChEMBL document CHEMBL1201862, “PubChem BioAssay data set” (2004).
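Protocol summary: plate cells (96-well), add compound at 5 concentrations, incubate 48 h, interpolate endpoints linearly. Abbreviation: GI50, concentration required for 50% inhibition of growth.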 Calls of active or inactive are those of the source. No stated cut-off is given here; in the data, active = GI50 up to about 1.1 µM and inactive = higher.

Legend:
Experiment in all cases: NCI anticancer screen, dose series, 48 h
[1] = test system: 786-0
[2] = test system: A498
[3] = test system: A549
[4] = test system: ACHN
[5] = test system: BT-549
[6] = test system: CAKI-1
[7] = test system: CCRF-CEM
[8] = test system: COLO 205
[9] = test system: DU-145
[10] = test system: EKVX
[11] = test system: HCT-116
[12] = test system: HCT-15
[13] = test system: HL-60
[14] = test system: HOP-92
[15] = test system: HT-29
[16] = test system: Hs-578T
[17] = test system: IGROV-1
[18] = test system: K562
[19] = test system: KM12
[20] = test system: LOX IMVI
[21] = test system: M14
[22] = test system: MCF7
[23] = test system: MDA-MB-231
[24] = test system: MDA-MB-435
[25] = test system: MDA-N
[26] = test system: MOLT-4
[27] = test system: NCI-H226
[28] = test system: NCI-H23
[29] = test system: NCI-H460
[30] = test system: NCI-H522
[31] = test system: NCI/ADR-RES
[32] = test system: OVCAR-3
[33] = test system: OVCAR-4
[34] = test system: OVCAR-5
[35] = test system: OVCAR-8
[36] = test system: PC-3
[37] = test system: RPMI-8226
[38] = test system: RXF 393
[39] = test system: SF-268
[40] = test system: SF-295
[41] = test system: SF-539
[42] = test system: SK-MEL-2
[43] = test system: SK-MEL-5
[44] = test system: SK-OV-3
[45] = test system: SN12C
[46] = test system: SNB-19
[47] = test system: SNB-75
[48] = test system: SR
[49] = test system: SW-620
[50] = test system: T47D
[51] = test system: TK-10
[52] = test system: U-251
[53] = test system: UACC-257
[54] = test system: UACC-62
[55] = test system: UO-31
[56] = test system: HOP-62
[57] = test system: Malme-3M
[58] = test system: SK-MEL-28

With `CSc1ncc2c(n1)-c1ccccc1OC2N1CCCCC1` (configuration not stated) the GI50 [1] was 29.4 µM (inactive), the GI50 [2] was 22.2 µM (inactive) and the GI50 [3] was 39.4 µM (inactive). The GI50 [4] was 37.1 µM (inactive), the GI50 [5] was 24.3 µM (inactive) and the GI50 [6] was 21.7 µM (inactive). For the same molecule, the GI50 [7] was 20.6 µM (inactive), the GI50 [8] was 44.8 µM (inactive) and the GI50 [9] was 34.4 µM (inactive). For the same molecule, the GI50 [10] was 35.2 µM (inactive), the GI50 [11] was 31 µM (inactive) and the GI50 [12] was 28.9 µM. The GI50 [13] was 19.7 µM (inactive), the GI50 [14] was 25 µM (inactive) and the GI50 [15] was 25.4 µM (inactive). For the same molecule, the GI50 [16] was 26.9 µM (inactive), the GI50 [17] was 40.1 µM (inactive) and the GI50 [18] was 29.5 µM (inactive). The GI50 [19] was 38.5 µM (inactive), the GI50 [20] was 21.1 µM (inactive) and the GI50 [21] was 49.3 µM (inactive). For the same molecule, the GI50 [22] was 23.8 µM (inactive), the GI50 [23] was 23 µM (inactive) and the GI50 [24] was 31.1 µM (inactive). For the same molecule, the GI50 [25] was 38.1 µM (inactive), the GI50 [26] was 20.2 µM (inactive) and the GI50 [27] was 32 µM (inactive). The GI50 [28] was 41.7 µM (inactive), the GI50 [29] was 30.4 µM (inactive) and the GI50 [30] was 18.9 µM (inactive). The GI50 [31] was 40.6 µM (inactive), the GI50 [32] was 38.5 µM (inactive) and the GI50 [33] was 28.8 µM (inactive). For the same molecule, the GI50 [34] was 42 µM (inactive), the GI50 [35] was 63.8 µM (inactive) and the GI50 [36] was 48.2 µM (inactive). For the same molecule, the GI50 [37] was 24.4 µM (inactive), the GI50 [38] was 32.1 µM (inactive) and the GI50 [39] was 45 µM (inactive). For the same molecule, the GI50 [40] was 38.5 µM (inactive), the GI50 [41] was 51.9 µM (inactive) and the GI50 [42] was 25.9 µM (inactive). For the same molecule, the GI50 [43] was 20.3 µM (inactive), the GI50 [44] was > 100 µM (inactive) and the GI50 [45] was 29.8 µM (inactive). The GI50 [46] was 68.7 µM (inactive), the GI50 [47] was 66.5 µM (inactive) and the GI50 [48] was 18 µM (inactive). For the same molecule, the GI50 [49] was 40.5 µM (inactive), the GI50 [50] was 27.3 µM (inactive) and the GI50 [51] was 27.3 µM (inactive). The GI50 [52] was 39 µM (inactive), the GI50 [53] was 34.6 µM (inactive) and the GI50 [54] was 22.4 µM (inactive). For the same molecule, the GI50 [55] was 32.5 µM (inactive).
In the case of `Cc1ncc([N+](=O)[O-])n1CCNS(=O)(=O)CCCn1ccnc1[N+](=O)[O-]`, the GI50 [1] is reported as > 100 µM (inactive), the GI50 [2] is reported as > 100 µM (inactive) and the GI50 [3] is reported as > 100 µM (inactive). The GI50 [4] was > 100 µM (inactive), the GI50 [5] was > 100 µM (inactive) and the GI50 [6] was > 100 µM (inactive). The GI50 [7] was > 100 µM (inactive), the GI50 [8] was > 100 µM (inactive) and the GI50 [9] was > 100 µM (inactive). For the same molecule, the GI50 [10] was > 100 µM (inactive), the GI50 [11] was > 100 µM (inactive) and the GI50 [12] was greater than 100 µM. For the same molecule, the GI50 [13] was > 100 µM (inactive), the GI50 [56] was > 100 µM (inactive) and the GI50 [14] was > 100 µM (inactive). The GI50 [15] was > 100 µM (inactive), the GI50 [16] was > 100 µM (inactive) and the GI50 [17] was > 100 µM (inactive). For the same molecule, the GI50 [18] was > 100 µM (inactive), the GI50 [19] was > 100 µM (inactive) and the GI50 [20] was > 100 µM (inactive). The GI50 [21] was > 100 µM (inactive), the GI50 [22] was > 100 µM (inactive) and the GI50 [23] was > 100 µM (inactive). For the same molecule, the GI50 [24] was > 100 µM (inactive), the GI50 [25] was > 100 µM (inactive) and the GI50 [26] was > 100 µM (inactive). For the same molecule, the GI50 [57] was > 100 µM (inactive), the GI50 [27] was > 100 µM (inactive) and the GI50 [28] was > 100 µM (inactive). For the same molecule, the GI50 [29] was > 100 µM (inactive), the GI50 [30] was > 100 µM (inactive) and the GI50 [31] was > 100 µM (inactive). The GI50 [32] was > 100 µM (inactive), the GI50 [33] was > 100 µM (inactive) and the GI50 [34] was > 100 µM (inactive). The GI50 [35] was > 100 µM (inactive), the GI50 [36] was > 100 µM (inactive) and the GI50 [37] was > 100 µM (inactive). The GI50 [38] was > 100 µM (inactive), the GI50 [39] was > 100 µM (inactive) and the GI50 [40] was > 100 µM (inactive). For the same molecule, the GI50 [41] was > 100 µM (inactive), the GI50 [58] was > 100 µM (inactive) and the GI50 [42] was > 100 µM (inactive). The GI50 [43] was > 100 µM (inactive), the GI50 [44] was > 100 µM (inactive) and the GI50 [45] was > 100 µM (inactive). The GI50 [47] was > 100 µM (inactive), the GI50 [48] was > 100 µM (inactive) and the GI50 [49] was > 100 µM (inactive). For the same molecule, the GI50 [50] was > 100 µM (inactive), the GI50 [51] was > 100 µM (inactive) and the GI50 [52] was > 100 µM (inactive). For the same molecule, the GI50 [53] was > 100 µM (inactive), the GI50 [54] was > 100 µM (inactive) and the GI50 [55] was > 100 µM (inactive).
`CN1CN(c2ccccc2)C2(CCN(C3Nc4ccccc4O3)CC2)C1=O` (configuration not stated) was tested, and the GI50 [1] was 20.6 µM (inactive), the GI50 [2] was 15.5 µM (inactive) and the GI50 [3] was 27.3 µM (inactive). For the same molecule, the GI50 [4] was 22 µM (inactive), the GI50 [5] was 15.7 µM (inactive) and the GI50 [6] was 25.5 µM (inactive). The GI50 [7] was 13.2 µM (inactive), the GI50 [8] was 16.3 µM (inactive) and the GI50 [9] was 22.7 µM (inactive). For the same molecule, the GI50 [11] was 16.2 µM (inactive), the GI50 [12] was 15.2 µM and the GI50 [13] was 12.5 µM (inactive). For the same molecule, the GI50 [56] was 17 µM (inactive), the GI50 [15] was 17.9 µM (inactive) and the GI50 [16] was 12.9 µM (inactive). For the same molecule, the GI50 [17] was 22.9 µM (inactive), the GI50 [18] was 18.5 µM (inactive) and the GI50 [19] was 19.6 µM (inactive). The GI50 [20] was 13.6 µM (inactive), the GI50 [21] was 18.5 µM (inactive) and the GI50 [22] was 19.5 µM (inactive). The GI50 [23] was 20.1 µM (inactive), the GI50 [24] was 19 µM (inactive) and the GI50 [25] was 17.9 µM (inactive). The GI50 [26] was 9.57 µM (inactive), the GI50 [57] was 17.3 µM (inactive) and the GI50 [27] was 18.6 µM (inactive). The GI50 [28] was 21.2 µM (inactive), the GI50 [29] was 17.7 µM (inactive) and the GI50 [30] was 17.5 µM (inactive). For the same molecule, the GI50 [31] was 20.8 µM (inactive), the GI50 [32] was 17.2 µM (inactive) and the GI50 [34] was 17.6 µM (inactive). The GI50 [35] was 26.2 µM (inactive), the GI50 [36] was 16.7 µM (inactive) and the GI50 [37] was 11.7 µM (inactive). The GI50 [38] was 14.5 µM (inactive), the GI50 [39] was 23.3 µM (inactive) and the GI50 [40] was 16.6 µM (inactive). The GI50 [41] was 15.1 µM (inactive), the GI50 [58] was 23.5 µM (inactive) and the GI50 [42] was 13.6 µM (inactive). The GI50 [43] was 17.7 µM (inactive), the GI50 [44] was 19.6 µM (inactive) and the GI50 [45] was 19.2 µM (inactive). For the same molecule, the GI50 [46] was 23.7 µM (inactive), the GI50 [47] was 20.9 µM (inactive) and the GI50 [48] was 36.9 µM (inactive). The GI50 [49] was 33.7 µM (inactive), the GI50 [50] was 22.2 µM (inactive) and the GI50 [51] was 11.1 µM (inactive). The GI50 [52] was 18.2 µM (inactive), the GI50 [53] was 16.7 µM (inactive) and the GI50 [54] was 16.1 µM (inactive). The GI50 [55] was 27.5 µM (inactive).
